# Reference: PubChem BioAssay (NCI)
#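 These data come from cells grown in 96-well plates and exposed to compound for 48 hours at five concentrations. The concentration for full growth arrest is given as TGI.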
# What was measured:
# Assay in all cases: inhibition of tumour cell growth, NCI panel, 48 h
# [1] = system: NCI-H522 lung
# [2] = system: UACC-62 melanoma
# [3] = system: UO-31 renal
# [4] = system: EKVX NSCLC
# [5] = system: T-47D breast
# [6] = system: U251 CNS
# [7] = system: MALME-3M melanoma
# [8] = system: CCRF-CEM leukemia
# [9] = system: NCI-H23 lung
# [10] = system: KM12 colon
# [11] = system: ACHN renal
# [12] = system: SF-295 CNS
# [13] = system: SK-MEL-5 melanoma
# [14] = system: UACC-257 melanoma
# [15] = system: SW-620 colon
# [16] = system: MDA-N
# [17] = system: OVCAR-8 ovarian
# [18] = system: HOP-62 NSCLC
# [19] = system: OVCAR-5 ovarian
# [20] = system: IGROV1 ovarian
# [21] = system: MDA-MB-435
# [22] = system: COLO 205 colon
# [23] = system: M14 melanoma
# [24] = system: HS 578T breast
# [25] = system: RXF 393 renal
# [26] = system: HCT-15 colon
# [27] = system: TK-10 renal
# [28] = system: PC-3 prostate
# [29] = system: A549 NSCLC
# [30] = system: BT-549 breast
# [31] = system: RPMI-8226 leukemia
# [32] = system: DU-145 prostate
# [33] = system: MOLT-4 leukemia
# [34] = system: SNB-75 CNS
# [35] = system: SK-MEL-2 melanoma
# [36] = system: HCT-116 colon
# [37] = system: NCI/ADR-RES ovarian
# [38] = system: OVCAR-4 ovarian
# [39] = system: SK-MEL-28 melanoma
# [40] = system: SN12C renal
# [41] = system: 786-0 renal
# [42] = system: LOX IMVI melanoma
# [43] = system: MCF7 breast
# [44] = system: NCI-H460 lung
# [45] = system: CAKI-1 renal
# [46] = system: SK-OV-3 ovarian
# [47] = system: SR leukemia
# [48] = system: HT29 colon
# [49] = system: HCC-2998 colon
# [50] = system: A498 renal
# [51] = system: HL-60(TB) leukemia
# [52] = system: HOP-92 NSCLC
# [53] = system: SNB-19 CNS
# [54] = system: SF-268 CNS
# [55] = system: OVCAR-3 ovarian
# [56] = system: SF-539 CNS
# [57] = system: NCI-H226 lung
# [58] = system: K-562 leukemia
# [59] = system: MDA-MB-231 breast
smiles,measurement,setting,value
CCOC(=O)CCC(NC(=O)OCc1ccccc1)C(=O)NC(CCC(=O)OCC)C(=O)NC(CCC(=O)OCC)C(=O)NC(CCC(=O)OCC)C(=O)NC(CCC(=O)OCC)C(=O)OCC (stereo unspecified),TGI,[1],> 100 µM
same,TGI,[2],> 100 µM
same,TGI,[3],> 100 µM
same,TGI,[4],> 100 µM
same,TGI,[5],> 100 µM
same,TGI,[6],> 100 µM
same,TGI,[7],> 100 µM
same,TGI,[8],> 100 µM
same,TGI,[9],> 100 µM
same,TGI,[10],> 100 µM
same,TGI,[11],> 100 µM
same,TGI,[12],> 100 µM
same,TGI,[13],> 100 µM
same,TGI,[14],> 100 µM
same,TGI,[15],> 100 µM
same,TGI,[16],> 100 µM
same,TGI,[17],> 100 µM
same,TGI,[18],> 100 µM
same,TGI,[19],> 100 µM
same,TGI,[20],> 100 µM
same,TGI,[21],> 100 µM
same,TGI,[22],> 100 µM
same,TGI,[23],> 100 µM
same,TGI,[24],> 100 µM
same,TGI,[25],> 100 µM
same,TGI,[26],> 100 µM
same,TGI,[27],> 100 µM
same,TGI,[28],> 100 µM
same,TGI,[29],> 100 µM
same,TGI,[30],> 100 µM
same,TGI,[31],> 100 µM
same,TGI,[32],> 100 µM
same,TGI,[33],> 100 µM
same,TGI,[34],> 100 µM
same,TGI,[35],> 100 µM
same,TGI,[36],> 100 µM
same,TGI,[37],> 100 µM
same,TGI,[38],> 100 µM
same,TGI,[39],> 100 µM
same,TGI,[40],> 100 µM
same,TGI,[41],> 100 µM
same,TGI,[42],> 100 µM
same,TGI,[43],> 100 µM
same,TGI,[44],> 100 µM
same,TGI,[45],> 100 µM
same,TGI,[46],> 100 µM
same,TGI,[47],> 100 µM
same,TGI,[48],> 100 µM
O=C(C1OC1c1ccc([N+](=O)[O-])cc1)C12CC3CC(CC(C3)C1)C2 (stereo unspecified),TGI,[1],54 µM
same,TGI,[2],28.9 µM
same,TGI,[3],32.4 µM
same,TGI,[4],37.4 µM
same,TGI,[5],37.3 µM
same,TGI,[49],44.4 µM
same,TGI,[6],24.6 µM
same,TGI,[7],32.4 µM
same,TGI,[50],35.7 µM
same,TGI,[8],7.66 µM
same,TGI,[9],27.2 µM
same,TGI,[10],30.1 µM
same,TGI,[11],34 µM
same,TGI,[12],30.8 µM
same,TGI,[13],29.1 µM
same,TGI,[51],16.1 µM
same,TGI,[52],40.3 µM
same,TGI,[53],32 µM
same,TGI,[14],30.9 µM
same,TGI,[54],40.8 µM
same,TGI,[15],56 µM
same,TGI,[16],24.3 µM
same,TGI,[55],27 µM
same,TGI,[17],38.2 µM
same,TGI,[18],56.3 µM
same,TGI,[19],39.9 µM
same,TGI,[20],34.6 µM
same,TGI,[21],28.4 µM
same,TGI,[22],35.4 µM
same,TGI,[23],30.1 µM
same,TGI,[24],50.3 µM
same,TGI,[25],46.4 µM
same,TGI,[26],31.5 µM
same,TGI,[27],33.3 µM
same,TGI,[28],28.1 µM
same,TGI,[29],52.7 µM
same,TGI,[30],40.2 µM
same,TGI,[32],46.2 µM
same,TGI,[33],49.3 µM
same,TGI,[56],28.9 µM
same,TGI,[57],39.4 µM
same,TGI,[34],39.4 µM
same,TGI,[35],39.1 µM
same,TGI,[36],22 µM
same,TGI,[37],39.2 µM
same,TGI,[38],38.9 µM
same,TGI,[39],33.4 µM
same,TGI,[58],33.5 µM
same,TGI,[40],29.7 µM
same,TGI,[41],22.1 µM
same,TGI,[42],4.19 µM
same,TGI,[59],34.8 µM
same,TGI,[43],33.1 µM
same,TGI,[44],28.5 µM
same,TGI,[45],36 µM
same,TGI,[46],49.6 µM
same,TGI,[48],47.7 µM
C[C@@H]1C(O)CC[C@H](C)C12CC=CC2=O (stereo partly specified),TGI,[1],> 100 µM
same,TGI,[2],> 100 µM
same,TGI,[3],> 100 µM
same,TGI,[4],> 100 µM
same,TGI,[5],> 100 µM
same,TGI,[49],> 100 µM
same,TGI,[6],> 100 µM
same,TGI,[7],> 100 µM
same,TGI,[50],> 100 µM
same,TGI,[9],> 100 µM
same,TGI,[11],> 100 µM
same,TGI,[12],> 100 µM
same,TGI,[13],> 100 µM
same,TGI,[51],> 100 µM
same,TGI,[52],> 100 µM
same,TGI,[53],> 100 µM
same,TGI,[14],> 100 µM
same,TGI,[54],> 100 µM
same,TGI,[15],> 100 µM
same,TGI,[16],> 100 µM
same,TGI,[55],> 100 µM
same,TGI,[18],> 100 µM
same,TGI,[19],> 100 µM
same,TGI,[20],> 100 µM
same,TGI,[21],> 100 µM
same,TGI,[22],> 100 µM
same,TGI,[24],> 100 µM
same,TGI,[25],> 100 µM
same,TGI,[26],> 100 µM
same,TGI,[27],> 100 µM
same,TGI,[28],> 100 µM
same,TGI,[29],> 100 µM
same,TGI,[31],> 100 µM
same,TGI,[32],> 100 µM
same,TGI,[33],> 100 µM
same,TGI,[56],> 100 µM
same,TGI,[57],> 100 µM
same,TGI,[35],> 100 µM
same,TGI,[36],> 100 µM
same,TGI,[37],> 100 µM
same,TGI,[38],> 100 µM
same,TGI,[39],> 100 µM
same,TGI,[58],> 100 µM
same,TGI,[40],> 100 µM
same,TGI,[41],> 100 µM
same,TGI,[42],> 100 µM
same,TGI,[59],> 100 µM
same,TGI,[43],> 100 µM
same,TGI,[44],> 100 µM
same,TGI,[45],> 100 µM
same,TGI,[46],> 100 µM
same,TGI,[47],> 100 µM
same,TGI,[48],> 100 µM
C[N+]1(C)CN(c2ccccc2)C2(CCN(CCCC(=O)c3cccs3)CC2)C1=O,TGI,[1],> 100 µM
same,TGI,[2],> 100 µM
same,TGI,[3],> 100 µM
same,TGI,[4],> 100 µM
same,TGI,[5],> 100 µM
same,TGI,[49],> 100 µM
same,TGI,[6],> 100 µM
same,TGI,[7],> 100 µM
same,TGI,[50],> 100 µM
same,TGI,[8],> 100 µM
same,TGI,[9],> 100 µM
same,TGI,[10],> 100 µM
same,TGI,[11],> 100 µM
same,TGI,[12],> 100 µM
same,TGI,[13],77.1 µM
same,TGI,[51],> 100 µM
same,TGI,[52],> 100 µM
same,TGI,[53],> 100 µM
same,TGI,[14],> 100 µM
same,TGI,[54],> 100 µM
same,TGI,[15],> 100 µM
same,TGI,[16],> 100 µM
same,TGI,[55],> 100 µM
same,TGI,[17],> 100 µM
same,TGI,[18],> 100 µM
same,TGI,[19],> 100 µM
same,TGI,[20],> 100 µM
same,TGI,[21],> 100 µM
same,TGI,[22],> 100 µM
same,TGI,[23],51.9 µM
same,TGI,[24],> 100 µM
same,TGI,[25],> 100 µM
same,TGI,[26],> 100 µM
same,TGI,[27],> 100 µM
same,TGI,[28],> 100 µM
same,TGI,[29],> 100 µM
same,TGI,[31],> 100 µM
same,TGI,[32],> 100 µM
same,TGI,[33],> 100 µM
same,TGI,[56],> 100 µM
same,TGI,[57],> 100 µM
same,TGI,[34],> 100 µM
same,TGI,[35],> 100 µM
same,TGI,[36],> 100 µM
same,TGI,[37],> 100 µM
same,TGI,[38],> 100 µM
same,TGI,[39],> 100 µM
same,TGI,[58],> 100 µM
same,TGI,[40],> 100 µM
same,TGI,[41],> 100 µM
same,TGI,[42],> 100 µM
same,TGI,[59],> 100 µM
same,TGI,[43],> 100 µM
same,TGI,[44],> 100 µM
same,TGI,[45],> 100 µM
same,TGI,[46],> 100 µM
same,TGI,[47],> 100 µM
same,TGI,[48],> 100 µM
